Values after ≈ are worked out from the molar mass of the structure shown.
Experiments:
Type in all cases: cell-based
[1] = test system: Bacillus subtilis ATCC 10707; test: Antibacterial activity (MIC), agar dilution method; conditions: ATCC10707, read-out: minimum inhibitory concentration (MIC), BS
Procedure: (§1) Antibacterial activities (minimum inhibitory concentration (MIC: mg/ml)) of Compounds (I) on various bacteria are shown in Table 2. The antibacterial activity was measured by an agar dilution method using a medium comprising 3 g/L Bacto-Tryptone (manufactured by Difco), 3 g/L meat extract, 1 g/L yeast extract, 1 g/L glucose and 16 g/L agar.

[2] = test system: Enteroccccus hirae ATCC 10541; test: Antibacterial activity (MIC), agar dilution method; conditions: read-out: minimum inhibitory concentration (MIC), ER
Procedure: as §1

[3] = test system: human renal carcinoma cell line ACHN; test: Growth inhibition action on human renal carcinoma cell line ACHN; conditions: ACHN cells, 72 hours culture with compound, Cell proliferation kit II, read-out: IC50 (concentration inhibiting 50% of the cell growth)
Procedure: Cells of human renal carcinoma cell line ACHN adjusted to a density of 3×10^4 cells/ml with RPMI (Roswell Park Memorial Institute) medium comprising 10% fetal bovine serum and 2 mmol/l glutamine were dispensed in a volume of 50 μl into each well of a 96 well microtiter plate and cultured at 37° C. for 24 hours in a carbon dioxide incubator. Each of the test compounds serially diluted with the above medium was added to each well in a volume of 50 μl, following by culturing at 37° C. for 72 hours in a carbon dioxide incubator. After discarding the culture supernatant, each well was washed twice with 0.1 ml of phosphate buffered saline (PBS), and then 0.1 ml of the above medium was again added to each well. Cell proliferation kit II (Boehringer Mannheim) was used for the measurement of the number of cells in each well. After addition of a color-producing reagent and subsequent incubation at 37° C. for 3 hours in a carbon dioxide incubator, absorbance at 490 nm and 655 nm was measured using a microplate reader, and a value (differential absorbance) was calculated by subtracting the absorbance at 655 nm from the absorbance at 490 nm in each well. By comparing the differential absorbance obtained from untreated cells and that obtained from cells treated with a predetermined concentration of each test compound, the concentration of the test compound capable of inhibiting 50% of the cell growth was calculated and expressed as IC50.

MIC [1] | MIC [2] | IC50 [3] | SMILES
380 µg/mL (≈ 0.807 mM) | 1500 µg/mL (≈ 3.19 mM) | 2.7 µM | CCCCN(CCCC)C(=O)[C@@H]1CCN2C(=O)C(C(=O)C3[C@H]4CCCC[C@@H]4C=C[C@@H]3C)=C[C@]12O (stereo partly shown) [Compound 8]
– | – | 5.7 µM | CCS[C@@H]1[C@H](C(=O)C2[C@H]3CCCC[C@@H]3C=C[C@@H]2C)C(=O)N2CC[C@@H](C(=O)N(CC)CC)[C@@]12O (stereo partly shown) [Compound 12]
– | – | 64 µM | C[C@H]1C=C[C@H]2CCCC[C@@H]2C1C(=O)C1Cc2cccn2C1=O (stereo partly shown) [Compound 16]
48000 µg/mL (≈ 116 mM) | 48000 µg/mL (≈ 116 mM) | – | C=CCOC(=O)[C@@H]1CCN2C(=O)C3(C(=O)C4[C@H]5CCCC[C@@H]5C=C[C@@H]4C)O[C@@H]3[C@]12O (stereo partly shown) [Compound 36]
1800 µg/mL (≈ 4.34 mM) | 3600 µg/mL (≈ 8.68 mM) | 5.6 µM | CCN(CC)C(=O)[C@@H]1CCN2C(=O)C(C(=O)C3[C@H]4CCCC[C@@H]4C=C[C@@H]3C)=C[C@]12O (stereo partly shown) [Compound 6]
13000 µg/mL (≈ 29.7 mM) | 13000 µg/mL (≈ 29.7 mM) | – | C[C@H]1C=C[C@H]2CCCC[C@@H]2C1C(=O)[C@@]1(Br)C(=O)N2CC[C@H]3C(=O)O[C@@H]1[C@]32O (stereo partly shown) [Compound 32]
16000 µg/mL (≈ 37.2 mM) | 8100 µg/mL (≈ 18.8 mM) | – | CCN(CC)C(=O)[C@@H]1CCN2C(=O)C3(C(=O)C4[C@H]5CCCC[C@@H]5C=C[C@@H]4C)O[C@@H]3[C@]12O (stereo partly shown) [Compound 38]
520 µg/mL (≈ 1.39 mM) | 520 µg/mL (≈ 1.39 mM) | 4.4 µM | COC(=O)[C@@H]1CCN2C(=O)C(C(=O)C3[C@H]4CCCC[C@@H]4C=C[C@@H]3C)=C[C@]12O (stereo partly shown) [Compound 1]
1300 µg/mL (≈ 2.94 mM) | 5000 µg/mL (≈ 11.3 mM) | – | CCCN(CCC)C(=O)[C@@H]1CCN2C(=O)C(C(=O)C3[C@H]4CCCC[C@@H]4C=C[C@@H]3C)=C[C@]12O (stereo partly shown) [Compound 7]

From patent publication US6869971B1, “UCS1025 derivatives” (Kyowa Hakko Kogyo Co., Ltd., priority 1999, dated 2005)
